Assay results: patent US20060134794A1, “Method of detecting the presence and/or progression of cancer” (priority 2004, published 2006)

Columns and labels:
[1] = system: aging-related isoform (arNOX); conditions: previous findings described in the background; cited from earlier work
[2] = system: age-related NOX (arNOX); experiment: NOX assay with human mammary epithelial (non-cancer) MCF-10A cells: arNOX; format: cell-based; conditions: 100 μM AgO added in 1.7% phosphoric acid; late passage MCF-10A cells
Protocol: (§1) FIG. 6 is as for FIG. 5 except that the assay was with 10^6 human mammary epithelial (non-cancer) MCF-10A cells. These cells lacked tNOX as their surface and contained predominantly a constitutive CNOX (single arrows) which was not inhibited by the 100 μM AgO added in 1.7% phosphoric acid. The MCF-10A cells were late passage cells and contained, as well, an age-related NOX (arNOX) with a period length of 26 minutes. This activity was inhibited by the AgO as shown in Panel B.
(§2) Growth of cells. Cells were grown in culture in a humidified atmosphere of 5% CO2 in air at 37° C. Media were renewed every 2 to 3 days. HeLa (ATCC CCL2) cells were grown in 175-cm^2 flasks in Minimal Essential Medium (Gibco), pH 7.4 at 37° with 10% fetal bovine serum (heat-inactivated), plus 50 mg/L gentamycin sulfate (Sigma). Cells were harvested by scraping and taken up in 140 mM NaCl, 5 mM KCl, 0.7 mM Na2HPO4 and 25 mM Tris, pH 7.4, to a final cell concentration of 0.1 g wet weight (gww) per mL. […]
(§3) Spectrophotometric assay of NADH Oxidase. NAD(P)H oxidase activities were measured using paired Hitachi U3210 spectrophotometers over successive 5-minutes intervals (two to four or more at low inhibitory concentrations) at 37° C. The activity was determined as the disappearance of NAD(P)H measured at 340 nm. […]

[3] = target: T1, constitutive CNOX (Homo sapiens, UniProt Q8TC92); experiment: NOX (NADH oxidase) assay of solubilized ECTO-NOX activities released from the surface of HeLa cells: CNOX; format: biochemical; design: solubilized ECTO-NOX activities released from the surface of HeLa cells by treatment at pH 5; endogenous in cells; host or cells: HeLa S cells, cell-free pH 5 extract
T1 sequence (Q8TC92 1-643): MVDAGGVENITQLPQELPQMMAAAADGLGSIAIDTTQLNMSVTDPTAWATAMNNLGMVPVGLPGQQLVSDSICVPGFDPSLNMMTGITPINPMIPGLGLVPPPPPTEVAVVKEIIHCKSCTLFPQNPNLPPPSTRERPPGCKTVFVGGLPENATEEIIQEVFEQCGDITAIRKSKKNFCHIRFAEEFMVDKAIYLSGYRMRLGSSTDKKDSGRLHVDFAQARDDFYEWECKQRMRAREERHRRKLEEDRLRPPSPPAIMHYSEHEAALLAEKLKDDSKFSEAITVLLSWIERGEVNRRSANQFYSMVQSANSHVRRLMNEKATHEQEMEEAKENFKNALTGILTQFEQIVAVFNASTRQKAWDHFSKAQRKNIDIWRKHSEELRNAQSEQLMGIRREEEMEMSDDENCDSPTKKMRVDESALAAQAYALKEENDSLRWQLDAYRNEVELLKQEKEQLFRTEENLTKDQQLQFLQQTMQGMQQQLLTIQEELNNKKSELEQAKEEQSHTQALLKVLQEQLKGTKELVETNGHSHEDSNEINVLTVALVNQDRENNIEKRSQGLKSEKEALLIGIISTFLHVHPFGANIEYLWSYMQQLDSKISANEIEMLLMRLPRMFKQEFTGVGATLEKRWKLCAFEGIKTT
Protocol: (§4) FIG. 2 is similar to FIG. 1 except that a preparation of solubilized ECTO-NOX activities released from the surface of HeLa cells by treatment at pH 5 (del Castillo-Olivares et al., Arch. Biochem. Biophys. 358: 125-140, 1998) was used as the enzyme source. The AgO was dissolved in DMSO added at a final concentration of AgO of 1 mM. The final concentration of DMSO added in both A and B after 45 minutes was 0.1%. The assays were then continued for and additional 45 minutes. The HeLa extracts contain both the constitutive CNOX (single arrows denoting a 24 minutes period length) and two activity maxima separated by 6 minutes and labeled (1) and (2) which are tNOX (double arrows). With addition of AgO, both tNOX activities are inhibited while the constitutive CNOX remain unaffected. Values are based on three experiments and report means±standard deviations to establish statistical reliability of the data.
FIG. 3 represents the response of total NOX (NADH oxidase) activity of the preparation of FIG. 2 as a function of the logarithm of AgO concentration. […]
as §3

[4] = system: constitutive CNOX; experiment: NOX assay with solubilized soybean plasma membranes; format: biochemical, soybean (Glycine max); conditions: plasma membranes solubilized in 0.1% Triton X-100 overnight
Protocol: FIG. 7 is similar to FIG. 6 except that plasma membranes isolated from etiolated hypocotyls (stems) of soybean (Glycine max) were the enzyme source. The plasma membranes were solubilized in 0.1% Triton X-100 overnight prior to assay. The soybean plasma membranes contain only a constitutive CNOX which is unresponsive to AgO.
(§5) Spectrophotometric assay of NADH Oxidase. NAD(P)H oxidase activities were measured using paired Hitachi U3210 spectrophotometers over successive 5-minutes intervals (two to four or more at low inhibitory concentrations) at 37° C. The activity was determined as the disappearance of NAD(P)H measured at 340 nm. The reaction mixture included sample, 50 mM Tris-MES, pH 7.0, 2 mM KCN, and 150 μM NAD(P)H in a total volume of 2.5 ml at 37° C. with stirring. A millimolar extinction coefficient of 6.22 was used to determine NAD(P)H disappearance.

[5] = target: T1, constitutive CNOX; experiment: NOX assay with human mammary adenocarcinoma (BT-20) cells: CNOX; format: cell-based; design: endogenous in cells; conditions: 100 μM AgO; 2×10^6 BT-20 cells
Protocol: (§6) FIG. 5 presents results from an assay using 2×10^6 human mammary adenocarcinoma (BT-20) cells carried out as described for FIG. 2. Panel A (no addition) received only the phosphoric acid (0.0017%).
as §2, with “mL. MCF-10A human mammary epithelial cells were cultured in a 1:1 mixture of Ham's F12 medium and Dulbecco's Modified Eagle's medium containing glutamine […], hydrocortisone (0.5 μg/mL), EGF (20 ng/mL), and 5% horse serum. Medium was renewed every 2-3 days.” for “mL.”
as §3

[6] = target: T2, recombinant form of tNOX (nus tNOX) (Homo sapiens, UniProt Q16206); experiment: standard NOX assay (oxidation of NADH, decrease in A340) with recombinant tNOX; format: biochemical; conditions: 100 μM AgO in 1.7% phosphoric acid added after 45 minutes; 25° C
T2 construct: nus tag
T2 sequence (Q16206 1-610): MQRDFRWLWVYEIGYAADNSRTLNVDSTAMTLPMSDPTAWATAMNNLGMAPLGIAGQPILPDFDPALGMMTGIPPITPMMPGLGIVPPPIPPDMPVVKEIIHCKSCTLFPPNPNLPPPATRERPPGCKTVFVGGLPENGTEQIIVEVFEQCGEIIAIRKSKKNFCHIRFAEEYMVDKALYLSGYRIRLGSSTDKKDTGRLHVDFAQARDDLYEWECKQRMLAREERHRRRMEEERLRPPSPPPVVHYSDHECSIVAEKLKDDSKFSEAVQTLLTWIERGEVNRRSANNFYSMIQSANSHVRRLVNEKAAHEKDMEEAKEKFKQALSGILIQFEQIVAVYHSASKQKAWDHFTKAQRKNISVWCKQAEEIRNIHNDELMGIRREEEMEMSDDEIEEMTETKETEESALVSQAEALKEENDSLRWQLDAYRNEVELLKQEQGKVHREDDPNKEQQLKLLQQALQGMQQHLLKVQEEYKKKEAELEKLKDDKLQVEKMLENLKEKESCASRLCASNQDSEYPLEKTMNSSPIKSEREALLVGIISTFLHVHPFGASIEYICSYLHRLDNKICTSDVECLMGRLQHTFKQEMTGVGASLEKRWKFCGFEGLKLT
Protocol: In panel A, an equivalent amount of phosphoric acid was added. The assay measured oxidation of NADH (decrease in A340) in a standard NOX assay at 25° C.
as §5

[7] = target: T3, tNOX (Homo sapiens, UniProt Q16206); experiment: NOX assay with human mammary adenocarcinoma (BT-20) cells: tNOX; format: cell-based; design: endogenous in cells; conditions: 100 μM AgO; 2×10^6 BT-20 cells
T3 sequence (Q16206 1-610): T2 sequence (Q16206 1-610)
Protocol: as §6
as §2, with “mL. MCF-10A human mammary epithelial cells were cultured in a 1:1 mixture of Ham's F12 medium and Dulbecco's Modified Eagle's medium containing glutamine […], hydrocortisone (0.5 μg/mL), EGF (20 ng/mL), and 5% horse serum. Medium was renewed every 2-3 days.” for “mL.”
as §3

[8] = target: T3, tNOX; experiment: NOX (NADH oxidase) assay of solubilized ECTO-NOX activities released from the surface of HeLa cells: tNOX; format: biochemical; design: solubilized ECTO-NOX activities released from the surface of HeLa cells by treatment at pH 5; endogenous in cells; host or cells: HeLa S cells, cell-free pH 5 extract
Protocol: as §4
FIG. 3 represents the response of total NOX (NADH oxidase) activity of the preparation of FIG. 2 as a function of the logarithm of AgO concentration. The AgO was dissolved in 1.7% phosphoric acid and the dilutions were prepared in water. […] The EC50 of tNOX inhibition was estimated to be about 5 μM.
as §5
Preparation of HeLa Cells and Cell-Free Extracts. HeLa S cells were collected by centrifugation and shipped frozen in 0.1 M sodium acetate, pH 5, in a ratio of 1 mL of packed cell volume to 1 mL of acetate (Cellex Biosciences). The cells were thawed at room temperature, resuspended, and incutated at 37° for 1 hr to release the protein. […]

[9] = target: T1, constitutive CNOX; experiment: NOX assay with human mammary epithelial (non-cancer) MCF-10A cells: CNOX; format: cell-based; design: solubilized ECTO-NOX activities released from the surface of HeLa cells by treatment at pH 5; endogenous in cells; host or cells: HeLa S cells, cell-free pH 5 extract; conditions: 100 μM AgO added in 1.7% phosphoric acid; 10^6 MCF-10A cells
Protocol: as §1, §2, §3

[10] = AgO dissolved in DMSO, final concentration 1 mM, added after 45 minutes

COC1=C(OC)C(=O)C(C/C=C(\C)CC/C=C(\C)CC/C=C(\C)CC/C=C(\C)CC/C=C(\C)CC/C=C(\C)CC/C=C(\C)CC/C=C(\C)CC/C=C(\C)CCC=C(C)C)=C(C)C1=O [coenzyme Q]
effect on generation of superoxide by arNOX [1]: inhibition

[O]=[Ag] [AgO, silver (II) oxide]
inhibition of age-related NOX (arNOX) activity [2]: inhibited
inhibition of constitutive CNOX ([3]; AgO concentration series in 1.7% phosphoric acid/water): not inhibited
effect on constitutive CNOX activity [3, 10]: unaffected
response of constitutive CNOX to AgO [4]: unresponsive
effect on constitutive CNOX [5]: without effect
inhibition of recombinant tNOX NADH oxidase activity [6]: inhibited completely
inhibition of the two activity maxima associated with tNOX [7]: inhibited
inhibition of tNOX ([8]; AgO concentration of 100 μM (10^−4M)): completely inhibited
EC50 ([8]; AgO dissolved in 1.7% phosphoric acid, dilutions in water, estimated from total NOX activity, read-out: EC50 of tNOX inhibition): ~5 µM
inhibition of tNOX activities [8, 10]: inhibited
inhibition of constitutive CNOX [9]: not inhibited
